Measurements as given in PMC7494652 (Bioorganic & medicinal chemistry letters, 2020).
Read-outs that look alike come from different tables or passages of the source.

Experiments:
[1] = Solubility in sodium phosphate buffer; type: physicochemical
[2] = target: T1, human sEH (Homo sapiens, UniProt P34913); assay: Inhibition of human sEH, kinetic fluorescent assay
T1 sequence (P34913 1-555): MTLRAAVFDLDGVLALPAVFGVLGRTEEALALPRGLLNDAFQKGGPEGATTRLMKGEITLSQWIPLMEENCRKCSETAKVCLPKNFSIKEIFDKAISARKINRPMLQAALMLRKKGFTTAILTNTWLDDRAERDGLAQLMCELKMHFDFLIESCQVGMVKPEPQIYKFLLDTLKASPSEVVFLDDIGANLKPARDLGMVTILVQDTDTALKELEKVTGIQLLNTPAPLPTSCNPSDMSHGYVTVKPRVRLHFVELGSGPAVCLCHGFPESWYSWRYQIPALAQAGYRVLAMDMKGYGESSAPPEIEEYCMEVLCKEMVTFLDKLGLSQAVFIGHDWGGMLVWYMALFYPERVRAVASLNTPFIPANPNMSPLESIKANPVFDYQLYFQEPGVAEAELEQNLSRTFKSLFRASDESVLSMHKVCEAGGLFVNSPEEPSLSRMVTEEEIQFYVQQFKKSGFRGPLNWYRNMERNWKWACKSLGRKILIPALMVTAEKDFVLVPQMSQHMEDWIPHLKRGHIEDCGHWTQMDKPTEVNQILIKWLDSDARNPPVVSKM

[3] = cited from earlier work

In the case of `CC1(C)[C@H]2CC[C@]1(C)C(NC(=O)Nc1ccccc1F)C2` (mixture of isomers) [(S)-2b], the solubility ([1]; pH 7.4, aqueous buffer) is reported as 225 ± 25 µM.
With `O=C(NCCCCCCCCNC(=O)NCc1ccco1)NCc1ccco1` [5i] the IC50 [2] was 214 nM.
In the case of `O=C(Nc1ccc(OC(F)(F)F)cc1)N[C@H]1CC[C@H](Oc2ccc(C(=O)O)cc2)CC1` [t-TUCB], the solubility [3] is given as 5[19] μM.
For `O=C(NC1CC2C=CC1C2)N[C@H]1CC[C@H](Oc2ccc(C(=O)O)cc2)CC1` (some centres unmarked) [1a], the “Fold more soluble than t-AUCB” value ([1]; sodium phosphate buffer) was 2 fold and the “Solubility compared with t-TUCB” value ([1]; sodium phosphate buffer) was “significantly more soluble”.
